Values after ≈ are worked out from the molar mass of the structure shown. Where two headings read alike, the source gives them in different places.
Experiments:
Saccharomyces cerevisiae = test: MIC on mass basis (Example V procedure); format: cell-based; conditions: Saccharomyces cerevisiae
Experimental: (§1) The essential procedure of Example I was followed with a series of phenolic compounds, with the exception that the test method was conducted on a mass (μg/ml) basis rather than a molecular (mol/ml) basis of the foregoing tests, since the long established phenol-coeffecient test is on a mass rather than molecular basis. Additionally, a different but closely related group of organisms were used in this test, in order to give a complete representative span on gram-negative, gram-positive and fungus organisms. Additionally, the phenolic derivatives chosen for test purposes include a number of derivatives which are presently accepted by the FDA as food-grade phenolic microbicides.
(§2) The same procedure of Example V was repeated but with combinations of mono-laurin (GML).
(§3) The procedure of Example V was repeated with combinations of glycerol mono-laurin (GML) and ethylenediamine tetraacetic acid (EDTA) as the calcium salt and in combination with BHA.

Nocardia asteroides [1] = test: MIC on mass basis (Example V procedure); format: cell-based
Experimental: as §1, §2, §3

Pseudomonas aeruginosa = test: MIC on mass basis (Example V procedure); format: cell-based
Experimental: as §1, §2, §3

Candida albicans = test: MIC on mass basis (Example V procedure); format: cell-based
Experimental: as §1, §2, §3

Staphylococcus aureus = test: MIC on mass basis (Example V procedure); format: cell-based
Experimental: as §1, §2, §3

Escherichia coli = test: MIC on mass basis (Example V procedure); format: cell-based; conditions: Escherichia coli
Experimental: as §1, §2, §3

Corynebacterium sp. = test: MIC on mass basis (Example V procedure); format: cell-based; conditions: Corynebacterium
Experimental: as §1

[2] = tested on: Streptococcus faecalis (Group D); test: MIC on mass basis (Example V procedure); format: cell-based; conditions: Enterococcus faecalis
Experimental: as §1

Streptococcus pyogenes = test: MIC on mass basis (Example V procedure); format: cell-based; conditions: Streptococcus pyogenes
Experimental: as §1

[3] = tested on: nine gram-positive organisms and the yeast/fungus Candida; test: MIC, broth dilution, over all organisms (Examples I/II); format: cell-based; conditions: for Inhibition in words: saturated acids, Table 1; for Activity in words: at the concentration tested
Experimental: (§4) In order to establish comparative bactericidal and fungicidal results with homologous fatty acids, a series of experiments was performed with thirty straight-chain fatty acids and derivatives thereof. Eight different gram-negative and twelve different gram-positive organisms, representing a very broad spectrum of organisms, were used in these experiments including the fungus Candida (a yeast). Additionally, fatty acids were chosen to show the effects of saturation versus unsaturation, in the fatty acid claim. Standard solutions of the fatty acids and their derivatives were prepared by first dissolving the weighed compounds in 1 to 2 ml of 95% ethanol and immediately pouring this solution into 200 ml of Tripticase Soy Broth. These lipid compounds which are insoluble in water and broth precipitated into very small crystals or droplets. The tubes containing the suspension were warmed to approximately 70° C and were then placed in an ultrasonic tank for further solubilization of the lipid derivatives.
(§5) Standard solutions (or suspensions) at 1,000 μg/ml were twofold serially diluted with additional broth to a concentration of 125 μg/ml. A 4-ml amount of each dilution was then quickly, and with constant agitation, dispensed into appropriately labeled screw-capped glass tubes (16 by 125 mm). The tubes were sterilized with steam at 15 psi for 15 minutes. After sterilization, all tubes were cooled and incubated overnight at 35° C to insure sterility.
(§6) All compounds were compared on a molar (micromoles/milliliter) rather than on a mass basis. In the following lists of organisms used, those followed by a parenthetical number are registered with the American Type Culture Collection (ATCC); the remainder were isolates from Providence Hospital or Northland Laboratory.
Staphylococcus aureus, S. epidermidis, beta-hemolytic streptococci (Group A and non-group A), group D streptococcus, Bacillus subtilis (6051), Sarcina lutea (9431), Micrococcus sp., Candida albicans, Nocardia asteroids (3308), Corynebacterium sp. (10700), and pneumococcus (63001).
(§7) One drop (0.04 ± 0.01 ml) of an 18-hr broth culture containing 10^7 and 10^9 organisms/ml was added to each dilution of the test compound, as well as to a tube of plain broth which served as the positive control. After inoculation, the contents of each tube were well mixed, and the tubes were incubated at 35° C in a 5% carbon dioxide + […] atmosphere.
(§8) The MIC is defined as the lowest concentration of compound at which no […] evidence of growth was observed when turbidity of the inoculated broth dilutions was compared with control tubes. […] Only a one-tube difference between the bactericidal and bacteriostatic concentrations was normally observed.
Table 5 presents a comparison of the C10 and C12 free acids and their glyceryl derivatives, and Table 6 gives the corresponding ranges of activity.
(§9) Standard solutions (1000 μg/ml) of three fatty acids and polyglycerol esters thereof were prepared as described in Example I. Also sucrose esters were prepared by transferring the weighed compounds (0.2 gm. dissolved in 1 ml absolute methanol) into 200 ml of sterile Trypticase Soy Broth (TSB). These standard solutions (1000 μg/ml) were twofold serially diluted with additional sterile broth to a concentration of 125 μg/ml. A 3.8 aliquot of each dilution was asceptically delivered into sterile screw-capped culture tubes. All tubes were incubated overnight at 36° C to insure sterility. The microorganisms used in this example were the same as those used in Example I.
The inoculum, 0.05 ml of an 13-24 hour TSB culture (approximately 10^9 organisms/ml) was asceptically delivered into all dilutions of the compounds, mixed well, and incubated at 36° C. […]

Streptococcus Group A = test: MIC, broth dilution (Examples I/II); format: cell-based, beta-hemolytic streptococci Group A
Experimental: as §4, §5, §6, §7, §8, §9
(§10) The inoculum, 0.05 ml of an 13-24 hour TSB culture (approximately 10^9 organisms/ml) was asceptically delivered into all dilutions of the compounds, mixed well, and incubated at 36° C. A tube of inoculated broth without the compound served as a positive control and an uninoculated set of dilutions incubated along with the test dilutions, served as a negative control.
(§11) In those cases in which the test compound itself caused turbidity, an aliquot (0.015 ml) of the mixed broth was inoculated onto an agar plate and incubated at 36° C for examination, as described in Example I. The control procedure of Example I was also repeated. The lauric, capric, and oleic acids were used as internal controls and for comparison to Example I. The minimal inhibitory concentrations (μmole/ml) for the compounds studied are given in Tables 7 and 8.

Nocardia asteroides [4] = test: MIC, broth dilution (Examples I/II); format: cell-based, Nocardia asteroids (3308); conditions: Nocardia asteroides, read-out: Inhibitory concentration
Experimental: as §4, §5, §6, §7, §8, §9, §10, §11

[5] = Table 4, range over the organisms of Table 3, read-out: MIC range
[6] = Table 2, range over the organisms of Table 1, read-out: MIC range

**Q.** For O=C(O)CN(CCN(CC(=O)O)CC(=O)O)CC(=O)O [EDTA, ethylenediamine tetraacetic acid], which MIC (Saccharomyces cerevisiae; Table 16, Saccharomyces cerevisiae, no unit in table, read-out: MIC) is on record?
**A.** The MIC was 1000 µg/mL.

**Q.** And the MIC (Saccharomyces cerevisiae; Table 17, 0 amount of GML, read-out: MIC of EDTA alone)?
**A.** The MIC was 1000 µg/mL.

**Q.** What about the MIC (Nocardia asteroides [1]; Nocardia asteroides, read-out: MIC of EDTA alone) of the same compound?
**A.** Its MIC is 500 µg/mL.

**Q.** What about the MIC (Nocardia asteroides [1]; Table 16, Nocardia asteroides, no unit in table) of the same compound?
**A.** Its MIC is 1,000.

**Q.** And the MIC (Pseudomonas aeruginosa; Pseudomonas aeruginosa, read-out: MIC of EDTA alone)?
**A.** The MIC was 5000 µg/mL.

**Q.** And the MIC (Pseudomonas aeruginosa; Table 16, Pseudomonas aeruginosa, no unit in table)?
**A.** Its MIC is > 1,000.

**Q.** What about the MIC (Candida albicans; Candida albicans, read-out: MIC of EDTA alone) of the same compound?
**A.** Its MIC is 5000 µg/mL.

**Q.** And the MIC (Candida albicans; Table 16, Candida albicans, no unit in table)?
**A.** Its MIC is > 1,000.

**Q.** And the MIC (Staphylococcus aureus; Staphylococcus aureus, read-out: MIC of EDTA alone)?
**A.** The MIC was 5000 µg/mL.

**Q.** What about the MIC (Staphylococcus aureus; Table 16, Staphylococcus aureus, no unit in table) of the same compound?
**A.** The MIC was > 1,000.

**Q.** What about the MIC (Escherichia coli; Table 16, Escherichia coli, no unit in table (Example 5 procedure, mass basis)) of the same compound?
**A.** The MIC was greater than 1000 µg/mL.

**Q.** And the MIC (Escherichia coli; read-out: MIC of EDTA alone, Table 17, 0 amount of GML)?
**A.** Its MIC is greater than 10000 µg/mL.

**Q.** What about the MIC (Corynebacterium sp.) of the same compound?
**A.** The MIC was 1000 µg/mL (≈ 3.42 mM).

**Q.** What about the MIC (Corynebacterium sp.; read-out: MIC of EDTA alone) of the same compound?
**A.** Its MIC is 1000 µg/mL.

**Q.** What about the MIC [2] of the same compound?
**A.** The MIC was greater than 1000 µg/mL.

**Q.** What about the MIC ([2]; read-out: MIC of EDTA alone) of the same compound?
**A.** The MIC was 5000 µg/mL.

**Q.** What about the MIC (Streptococcus pyogenes) of the same compound?
**A.** The MIC was 1000 µg/mL (≈ 3.42 mM).

**Q.** And the MIC (Streptococcus pyogenes; read-out: MIC of EDTA alone)?
**A.** The MIC was 1000 µg/mL.

**Q.** How did the “Effect of albumin on MIC” value ([3]; Albumin (0.1%) added) turn out when CCCCCCCCCCCC(=O)O [Lauric acid, lauric acid] was run?
**A.** Its value is “had no effect on the determination of the MIC”.

**Q.** And the MIC range ([3]; Table 4, range over the organisms of Table 3)?
**A.** Its MIC range is 0.062 to 2.49 µmol/mL.

**Q.** And the MIC range ([3]; Table 6, range over the organisms of Table 5, NI = no inhibition)?
**A.** Its MIC range is 0.062 - 2.49 μ/Mol/ml.

**Q.** And the MIC ([3]; read-out: MIC range)?
**A.** The MIC was 62 to 2490 µM (≈ 12.4 to 499 µg/mL).

**Q.** And the Inhibition in words [3]?
**A.** The Inhibition in words was “clearly the more active saturated acid”.

**Q.** And the MIC (Streptococcus Group A; group A Streptococci, Bio Gel and Florisil used)?
**A.** Its MIC is greater than 990 µM.

**Q.** What about the MIC (Streptococcus Group A; group A Streptococci, filtered (laurate crystals removed)) of the same compound?
**A.** Its MIC is 1000 µM (≈ 200 µg/mL).

**Q.** And the MIC (Streptococcus Group A; group A Streptococci, non-filtered broth)?
**A.** The MIC was 125 µM (≈ 25 µg/mL).

**Q.** Which MIC [3, 5] does the source give for CCCCCCCCCCCC(=O)N(C)C [Lauryl N,N-dimethylamide] here?
**A.** Its MIC is 54 to 109 µM (≈ 12.3 to 24.8 µg/mL).

**Q.** How did the MIC [3, 5] turn out when CCCCCCCCCCCCO [Lauryl alcohol] was run?
**A.** The MIC was 67 to 5400 µM (≈ 12.5 to 1010 µg/mL).

**Q.** Which MIC ([3]; read-out: MIC range) does the source give for CCCCCCCCCCCCCC(=O)O [Myristic] here?
**A.** Its MIC is 218 to 4370 µM (≈ 49.8 to 998 µg/mL).

**Q.** For CCCC/C=C\CCCCCCCC(=O)O [Myristoleic], which MIC [3, 6] is on record?
**A.** The MIC was 55 to 552 µM (≈ 12.4 to 125 µg/mL).

**Q.** For CCCCCCCC/C=C\CCCCCCCC(=O)O [Oleic acid], which Activity in words [3] is on record?
**A.** The Activity in words was “very limited activity”.

**Q.** CCCCCC/C=C\CCCCCCCC(=O)O [Palmitoleic] was tested. Which MIC [3, 6] did it give?
**A.** The MIC was 24 to 983 µM (≈ 6.11 to 250 µg/mL).

**Q.** How did the Inhibition in words [3] turn out when CCCCCCCCCCCCCCCCCC(=O)O [Stearic, stearic acid] was run?
**A.** Its Inhibition in words is “not inhibitory at all”.

**Q.** What does the source list for CCCCCCCCCCC(O)C(=O)O (stereo not drawn) [α-hydroxylaurate]?
**A.** MIC (Nocardia asteroides [4]): 4630 µM (≈ 1000 µg/mL); MIC (Streptococcus Group A; read-out: Inhibitory concentration, Group A Strep): 230 µM (≈ 49.8 µg/mL)

**Q.** With Triglycerol oleate as the compound, how does the MIC ([3]; Table 7, one entry across all (oleic acid: all other than Grp. A) organisms, NO INHIBITION, max. tested listed) read?
**A.** The MIC was greater than 1980 µM.

**Q.** And the Activity in words [3]?
**A.** The Activity in words was “no activity at the concentration tested”.
